Experimental data as given in article PMC12520770, “Synthesis of a novel coumarin via the Mannich reaction: in vitro and in silico evaluation of anti-cancer, antimicrobial and antioxidant activities” (Royal Society Open Science, 2025).
≈ marks a conversion by molar mass, not a printed value.

How the values were obtained:
[1] = test system: human breast cancer cell line MCF-7; assay: SRB cytotoxicity assay, MCF-7; assay type: cell-based; conditions: MCF7, MCF-7, SRB assay, 48 h
Method: (§1) Human lung cancer cell line NCI-H460 (HTB-177), human breast cancer cell line MCF-7 (HTB-2), human cervical cancer cells HeLa (CCL-2), human liver cancer cell line HepG2 (HB-8065) and normal kidney epithelial cell line (LLCPK1) were purchased from the American Type Culture Collection (Manassas, Rockville). Cells were cultured at 37°C and 5% CO2 in Eagle’s minimal essential medium supplemented with 10% (v/v) FBS (Sigma), 2 mM L-glutamine (Sigma), 20 mM HEPES (Sigma), 0.025 μg ml^−1 amphotericin B (Sigma), 100 IU ml^−1 penicillin G (Sigma) and 100 μg ml^−1 streptomycin (Sigma). Cells used in this study were between passages 4 and 20.
(§2) The experiment was conducted as previously outlined, with certain variations. Cells were seeded at a density of 10 000 cells per well (MCF-7, Hep G2, HeLa) or 7500 cells per well (NCI-H460) in 96-well plates, grown for 24 h, and subsequently treated with compounds at varying doses for 48 h. Treated cells were fixed with cold 50% (w/v) trichloroacetic acid (Merck) solution for 1−3 h, subsequently washed and stained with 0.2% (w/v) SRB (Sigma) for 20 min. Following five washes with 1% acetic acid (Merck), the protein-bound dye was solubilized in a 10 mM Tris base solution (Promega). Optical density values were measured using a 96-well microtiter plate reader (Synergy HT, Biotek Instruments) at wavelengths of 492 and 620 nm. The growth inhibition percentage (Inh %) was determined using the formula: Inh % = (1 − [ODt/ODc]) × 100, where ODt and ODc represent the optical density values of the test and control samples, respectively. Camptothecin served as the positive control.

[2] = test system: human cervical cancer cells HeLa; assay: SRB cytotoxicity assay, HeLa; assay type: cell-based; conditions: 48 h
Method: as §1, §2

[3] = test system: human liver cancer cell line HepG2; assay: SRB cytotoxicity assay, HepG2; assay type: cell-based; conditions: 48 h
Method: as §1, §2

Bacillus subtilis = assay: Broth microdilution MIC, B. subtilis; assay type: cell-based
Method: The three bacteria—Escherichia coli (E. coli), methicillin-resistant Staphylococcus aureus (MRSA) and Bacillus subtilis (B. subtilis), and two fungi: Candida albicans (C. albicans) and Trichophyton mentagrophytes (T. mentagrophytes) were used in this study. The clinical isolates were obtained in 2019 from the Faculty of Biology and Biotechnology, University of Science, Vietnam National University.
All coumarin derivatives were evaluated for in vitro antibacterial and antifungal activities, and the minimum inhibitory concentration (MIC) was ascertained in µM using the broth microdilution method. The test organisms were cultivated and cultured for 48 h at 37°C. The 2-day-old bacterial cultures were emulsified in a small volume of Muller Hinton broth (MHB) and cultured at 37°C overnight to reach the logarithmic growth phase. The turbidity of each inoculum was subsequently corrected to McFarland standard no. 0.5 by the additional incorporation of MHB, resulting in an inoculum concentration of 1.5 × 10^8 CFU ml^−1. One hundred microlitres of MHB were dispensed into all wells of the 96-well microtiter plates, excluding the first column A. Subsequently, 200 µl of the working solution for each examined chemical was allocated to column A of each plate. […] The MIC was determined as the minimal concentration of substances that inhibited the colour change.

[4] = DPPH radical scavenging assay; assay type: biochemical; conditions: read-out: SC50 (the source's name)
Method: The 1,1-diphenyl−2-picrylhydrazyl (DPPH) assay is a technique employed to assess the antioxidant potential of a chemical by measuring its efficacy in scavenging free radicals. DPPH produces stable free radicals in methanol. Upon exposure to an antioxidant, DPPH experiences a colour transformation from purple to yellow, which is quantified using an ELISA reader at a wavelength of 517 nm. The experiment is performed in a 96-well plate, where a 150 µM DPPH solution in 80% methanol is combined with test samples at different concentrations. The DPPH radical scavenging activity percentage is computed using the formula SC% = 1 − [ODt/ODc] × 100 (%), where SC50 (radical scavenging concentration of 50%) is the sample concentration necessary to eliminate 50% of DPPH radicals, as ascertained from the standard calibration curve. Trolox serves as a positive control in the experiment.

[5] = test system: normal kidney epithelial cell line (LLCPK1); assay: SRB cytotoxicity assay, normal cells LLCPK1; assay type: cell-based; conditions: Sus scrofa, LLC-PK1
Method: as §1, §2

| SMILES | MIC (Bacillus subtilis) [µM] | EC50 [4] [µM] | IC50 [1] [µM] | IC50 [2] [µM] | IC50 [3] [µM] | IC50 [5] [µM] |
| --- | --- | --- | --- | --- | --- | --- |
| CC[C@@]1(O)C(=O)OCc2c1cc1n(c2=O)Cc2cc3ccccc3nc2-1 [camptothecin, reference compound] |  |  | 3.76 ± 0.15 | 2.38 ± 0.102 | 4.28 ± 0.201 |  |
| Cc1c(C)c2c(c(C)c1O)CCC(C)(C(=O)O)O2 (stereo not shown) [Trolox, reference compound] |  | 6.12 ± 0.15 |  |  |  |  |
| CNCc1c(O)c2ccccc2oc1=O [compound 2a, 4-Hydroxy-3-[(methylamino)methyl]-2H-chromen-2-one] | 25 (≈ 5.13 µg/mL) | 62.5 | 52 | 39.3 | 8.57 ± 0.42 | 94.6 |
| O=c1oc2ccccc2c(O)c1Cn1ccnc1 [2e, 3-[(1H-imidazol-1-yl)methyl]-4-hydroxy-2H-chromen-2-one] |  | 80.9 | 30.4 | 34.2 | 34.2 |  |
| CCCNCc1c(O)c2ccccc2oc1=O [2h, 4-Hydroxy-3-[(propylamino)methyl]-2H-chromen-2-one] |  | 65.3 | 40.1 | 73.2 | 62.5 |  |
| O=c1oc2ccccc2c(O)c1CN1CCOCC1 [2g, 4-Hydroxy-3-(morpholinomethyl)-2H-chromen-2-one] |  | 72.2 | 42.7 | 31.5 | 50.2 |  |
| O=C(O)c1ccc(NCc2c(O)c3ccccc3oc2=O)cc1 [2c, 4-{[(4-hydroxy-2-oxo-2H-chromen-3-yl)methyl]amino}benzoic acid] |  | 59.7 | 61.4 | 54.9 | 56.5 |  |

Now from value to molecule, other results behind:

| MIC (Bacillus subtilis) [µM] | EC50 [4] [µM] | SMILES | IC50 [1] [µM] | IC50 [2] [µM] | IC50 [3] [µM] | IC50 [5] [µM] |
| --- | --- | --- | --- | --- | --- | --- |
| 75 (≈ 19.4 µg/mL) | 45.9 | O=c1oc2ccccc2c(O)c1CNC1CCCC1 [compound 2f, 3-[(Cyclopentylamino)methyl]-4-hydroxy-2H-chromen-2-one] | 54.2 | 57.3 | 49.7 |  |
|  | 53.3 | O=c1oc2ccccc2c(O)c1CNc1ccccc1 [compound 2j, 4-Hydroxy-3-[(phenylamino)methyl]-2H-chromen-2-one] | 95.5 | 84.7 | 68.1 |  |
|  | 31.3 | CC(C)NCc1c(O)c2ccccc2oc1=O [compound 2b, 4-Hydroxy-3-[(isopropylamino)methyl]-2H-chromen-2-one] | 35.4 | 5.23 ± 0.12 | 73.2 | 97.3 |
|  | 35.8 | N#Cc1ccc(NCc2c(O)c3ccccc3oc2=O)cc1 [compound 2d, 4-{[(4-Hydroxy-2-oxo-2H−chromen-3-yl)methyl]amino}benzonitrile] | 2.54 ± 0.12 | 34.1 | 70.2 | 94.8 |
|  | 7.36 ± 0.18 | O=c1oc2ccccc2c(O)c1CNc1ccc(S(=O)(=O)O)cc1 [compound 2i, 4-{[(4-Hydroxy-2-oxo−2H-chromen-3-yl)methyl]amino}benzenesulfonic acid] | 85.2 | 80.2 | 75.2 |  |
